The values below come from patent US10716806B2, “Solution of carbon monoxide for the treatment of disease, including sickle cell disease” (Children's Hospital Los Angeles, priority 2011, dated 2020).

Data set [1] in a line: CO concentration achievable in aqueous composition (water) at given temperature and pressure. The format is physicochemical. An excerpt: There are a number of significant limitations to using the delivery of CO dissolved in liquid and used through the GI tract or IV for therapeutic or prophylactic purposes. These limitations have been overcome in the present invention. The primary barrier to date has been delivering sufficient quantities of CO. The solubility of CO in aqueous solutions is low at room temperature and normal atmospheric pressure (ATM). Thus, using approaches previously proposed in the art, which rely on dissolving CO into an aqueous composition at room temperature and at atmospheric pressure, the volume of liquid necessary to deliver a therapeutic dose of CO is logistically prohibitive. However, using the present invention, therapeutically useful levels of CO can be achieved. Table 1 provides a summary of volumes necessary to achieve a therapeutic dose providing an average increase of […] CO-Hb, which provides an average CO-Hb level in the blood of about 7% on average without rising above 15% at any given time. The values are presented for SCD patients. Table 2 provides a similar summary of volumes necessary to treat patients having normal levels of Hb and normal lung function.
First, in the present invention, in particular as it relates to embodiments wherein aqueous compositions are involved, CO is dissolved in an aqueous liquid under higher than ambient pressure. The use of pressure to dissolve the CO increases the achievable concentration of CO in solution. […] Although raising the pressure above 10 ATM might not be commercially practicable, it is technologically feasible at this time. […]

For data set [2] the following is noted: cited from earlier work.
For data set [3] the following is noted: cited from earlier work. This is another data set of the same source.

On to `[C-]#[O+]` [CO, carbon monoxide], for which the “CO Concentration Achievable in Aqueous Composition” value in data set [1] (2° C., 1 ATM) amounted to 40 mg/L water; in data set [1] (2° C., 2 ATM), 80 mg/L water; in data set [1] (2° C., 3 ATM), 120 mg/L water; in data set [1] (2° C., 5 ATM), 200 mg/L water; in data set [1] (2° C., 10 ATM), 400 mg/L water; in data set [1] (21° C., 1 ATM), 25 mg/L water. The “CO Concentration in Aqueous Solution” value in data set [1] (2° C., 1 ATM) is on record as 40 mg/L water; in data set [1] (2° C., 2 ATM), 80 mg/L water; in data set [1] (2° C., 3 ATM), 120 mg/L water; in data set [1] (2° C., 5 ATM) it was 200 mg/L water; in data set [1] (2° C., 10 ATM), 400 mg/L water. The “CO-Hb level at which toxicity and side effects are routinely seen” value in data set [2] (generally recognized) is reported as “over 20%”. In data set [2] (generally recognized), the “CO-Hb level showing effectiveness at reducing SCC without significant deleterious side effects or toxicity” value is recorded as “up to 15 % CO-Hb”. Also, the “Hb saturation likely resulting in CO-induced death unless treatment is provided” value in data set [2] (reported (Stewart 1975)) was “over 67%”. Besides, the “Hb saturation resulting in loss of consciousness, among other serious morbidities” value in data set [2] (reported, can result in death if maintained long-term) is “over 30%”. In addition, the “half-life of the alpha-phase of CO in the human bloodstream” value in data set [3] is 4 to 6 h.
